In paper PMC5000470, “Optimization of extraction parameters of PTP1β (protein tyrosine phosphatase 1β), inhibitory polyphenols, and anthocyanins from Zea mays L. using response surface methodology (RSM)” (BMC Complementary and Alternative Medicine, 2016):
Where two headings read alike, the source gives them in different places.

Legend:
[1] = target: T1, PTP1β (human, recombinant) (Homo sapiens, UniProt P18031); test: PTP1β inhibitory activity assay (pNPP substrate); assay type: biochemical; details: for inhibition at 10 µg/mL: concentration 10 μg/mL; for inhibition at 50 µg/mL: concentration 50 μg/mL; for inhibition at 25 µg/mL: concentration 25 μg/mL
T1 construct: purchased BIOMOL International LP (Plymouth Meeting, PA)
T1 sequence (P18031 1-435): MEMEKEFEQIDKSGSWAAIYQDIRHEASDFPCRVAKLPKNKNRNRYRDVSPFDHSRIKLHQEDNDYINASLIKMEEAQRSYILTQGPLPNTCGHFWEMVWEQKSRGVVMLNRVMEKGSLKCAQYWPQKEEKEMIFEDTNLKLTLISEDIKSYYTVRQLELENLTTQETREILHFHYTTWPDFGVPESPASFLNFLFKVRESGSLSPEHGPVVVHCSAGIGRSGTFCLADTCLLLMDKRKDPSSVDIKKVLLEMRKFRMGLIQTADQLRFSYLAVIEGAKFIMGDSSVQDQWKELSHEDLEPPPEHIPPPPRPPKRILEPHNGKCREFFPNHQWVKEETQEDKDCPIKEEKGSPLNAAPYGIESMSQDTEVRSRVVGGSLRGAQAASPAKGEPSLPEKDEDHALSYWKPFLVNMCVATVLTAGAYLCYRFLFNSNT
Protocol: A PTP1β (human, recombinant) drug discovery kit was purchased from BIOMOL® International LP (Plymouth meeting, PA). Enzymatic activity was measured using pNPP, as described previously. To each of the 96-wells in a microtiter plate (final volume: 100 μL) was added 2 mM pNPP and PTP1β (0.05-0.1 ng/well) in a buffer containing 50 mM citrate (pH 6.0), 0.1 M sodium chloride, 1 mM EDTA, and 1 mM dithiothreitol, with or without test compounds. Following incubation at 37 °C for 30 min, the reaction was terminated with 10 M sodium hydroxide.
All calculations and analyses were performed using statistical analysis system (SAS, SAS Institude Inc., NC, USA, version 9.1) software and Sigma plot (Systat Software Inc., USA, version 11). Inhibition rates were calculated as percentages (%) with respect to the control value and IC50 value was estimated from the least-squares regression line of the logarithmic concentration plotted against inhibitory activity.

[2] = system: rat lenses aldose reductase; parameters: method as in PMID 23586057; details: cited from earlier work
[3] = system: human recombinant aldose reductase; parameters: method as in PMID 23586057; details: cited from earlier work
[4] = target: T1, PTP1β (human, recombinant); test: Kinetics of PTP1β inhibition (Lineweaver-Burk plots, pNPP substrate); assay type: biochemical; parameters: dose or concentration left out as unconfirmed
Protocol: […] The initial rate was determined on the basis of the rate of increase in absorbance at 405 nm. The Michaelis-Menten constant (Km) and maximal velocity (Vmax) of PTP1β were determined by Lineweaver-Burk Plot analysis for competitive inhibition, and the intercept on the vertical axis for noncompetitive inhibition.
A kinetic analysis of PTP1β inhibition by compounds 7 and 11 using Lineweaver-Burk plots of 1/velocity and 1/concentration of substrate is shown in Fig. 2. […] However, compound 7 yielded a noncompetitive inhibition pattern against PTP1β. […] These compounds may be potential lead compounds for further development as a functional food source for the prevention of diabetes.

[5] = Table 2, concentration 100 μg/mL, read-out: Inhibition (%)
[6] = Table 2, isolated compounds, mean of 3 duplication analyses, read-out: IC50 (μg/ml) (converted)
[7] = isolated compounds, read-out: IC50

SMILES	inhibition at 100 µg/mL [1, 5]	IC50 [1, 6]	inhibition at 10 µg/mL ([1]; Table 2)	inhibition at 50 µg/mL ([1]; Table 2)	IC50 [1, 7]	also measured
O=C(O)c1c(O)cc(O)cc1O [compound 3, 2,4,6-trihydroxy benzoic acid]	< 50%	–	–	–	–	–
O=C(O)c1ccc(O)c(O)c1 [compound 1, protocatechuic acid]	–	–	–	–	–	inhibition at 100 µg/mL [1]: < 50%
Cc1ccc(C(=O)Nc2ccc(S(=O)(=O)O)c3cc(S(=O)(=O)O)cc(S(=O)(=O)O)c23)cc1NC(=O)c1cccc(NC(=O)Nc2cccc(C(=O)Nc3cc(C(=O)Nc4ccc(S(=O)(=O)O)c5cc(S(=O)(=O)O)cc(S(=O)(=O)O)c45)ccc3C)c2)c1 [Suramin, suramin, reference compound]	–	–	–	–	–	inhibition at 3.21 µg/mL ([1]; Table 1, concentration 3.21 μg/mL): 10.7%; inhibition at 6.49 µg/mL ([1]; Table 1, concentration 6.49 μg/mL): 40.6%; inhibition at 12.97 µg/mL ([1]; Table 1, concentration 12.97 μg/mL): 61.9%; inhibition at 1 µg/mL ([1]; Table 2, concentration 1 μg/mL): 10.7%; inhibition at 2.5 µg/mL ([1]; Table 2, concentration 2.5 μg/mL): 46.5%; inhibition at 5 µg/mL ([1]; Table 2, concentration 5 μg/mL): 64.3%
COc1cc(C(=O)O)ccc1O [compound 2, vanillic acid]	< 50%	–	–	–	–	–
O=C(O)/C=C/c1ccc(O)cc1 [compound 4, p-4-hydroxycinnamic acid]	< 50%	–	–	–	–	–

Further lines, with some results ahead:

inhibition at 100 µg/mL [1, 5]	IC50 [1, 6]	inhibition at 10 µg/mL ([1]; Table 2)	inhibition at 50 µg/mL ([1]; Table 2)	IC50 [1, 7]	SMILES	also measured
< 50%	–	–	–	–	O=c1c(O[C@@H]2O[C@H](CO)[C@@H](O)[C@H](O)[C@H]2O)c(-c2ccc(O)c(O)c2)oc2cc(O)cc(O)c12 [compound 6, hirsutrin]	inhibitory activity on rat lenses aldose reductase [2]: significant inhibitory activities; inhibitory activity on human recombinant aldose reductase [3]: significant inhibitory activities
96.1%	185 µM	28.3%	64.5%	185 µM	COc1cc(/C=C/C(=O)O)ccc1O [compound 5, ferulic acid]	–
< 50%	–	–	–	–	COc1cc(-c2[o+]c3cc(O)cc(O)c3cc2O[C@@H]2O[C@H](CO)[C@@H](O)[C@H](O)[C@H]2O)ccc1O [compound 10, peonidin-3-glucoside]	–
55%	211 µM	1.09%	13.3%	211 µM	OC[C@H]1O[C@@H](Oc2cc3c(O)cc(O)cc3[o+]c2-c2ccc(O)cc2)[C@H](O)[C@@H](O)[C@@H]1O [compound 9, pelargonidin-3-glucoside]	–
–	64 µM	15%	85.9%	64 µM	COc1cc(-c2oc3cc(O)cc(O)c3c(=O)c2O[C@@H]2O[C@H](CO)[C@@H](O)[C@H](O)[C@H]2O)ccc1O [compound 7, 3′-methoxyhirsutrin]	type of inhibition of PTP1β [4]: noncompetitive; inhibitory activity on rat lenses aldose reductase [2]: significant inhibitory activities; inhibitory activity on human recombinant aldose reductase [3]: significant inhibitory activities; inhibition at 25 µg/mL ([1]; Table 2): 36.8%
–	54.1 µM	18.5%	91.7%	54.1 µM	O=C(O)CC(=O)OC[C@H]1O[C@@H](Oc2cc3c(O)cc(O)cc3[o+]c2-c2ccc(O)c(O)c2)[C@H](O)[C@@H](O)[C@@H]1O [compound 11, cyanidin-3-(6”-malonylglucoside)]	type of inhibition of PTP1β [4]: mixed; inhibitory activity on rat lenses aldose reductase [2]: significant inhibitory activities; inhibitory activity on human recombinant aldose reductase [3]: significant inhibitory activities; inhibition at 25 µg/mL ([1]; Table 2): 36.2%
< 50%	–	–	–	–	OC[C@H]1O[C@@H](Oc2cc3c(O)cc(O)cc3[o+]c2-c2ccc(O)c(O)c2)[C@H](O)[C@@H](O)[C@@H]1O [compound 8, cyanidin-3-glucoside]	–
